Laboratory results reported in patent EP0162592B1, “Heterocyclic amino compounds” (GLAXO GROUP LIMITED, priority 1984, dated 1985).
Counter-ions that a name gives are not always drawn.

Test system: α1-adrenoreceptor
Assay: a1-Adrenoreceptor antagonist action: prevention of phenylephrine contractions in rat isolated anococcygeus muscle (Schild analysis)
Format: cell-based
Settings: agonist phenylephrine, KB = concentration shifting the agonist log10 (concentration)/response curve to the right by a factor of 2, read-out: KB value at a,-adrenoreceptors
Experimental: The a-adrenoreceptor-type selectivity of the compounds of general formula (I) is similarly assessed by measuring the ability to produce a parallel shift to the right of the logio (concentration)/response curve for the a,-adrenoreceptor agonist phenylephrine. The a,-adrenoreceptor-mediated responses of phenylephrine measured were contractions of the rat isolated anococcygeus muscle (Leighton, Butz & Parameter, Eur.J.Pharmac., 1979, 58 27-38).
Compounds were tested for their ability to prevent the action of α1-adrenoreceptor agonist phenylephrine in the rat isolated anococcygens muscle (Leighton, Butz & Parmeter, Eur. J. Pharmac., 1979 58 27-38). Antagonism of the effect of phenylephrine was quantified by measuring the parallel shift to the right of the phenylephrine log10 (concentration)/response curve in the presence of increasing concentrations of the test compound.
In (1) and (2) potency and competiveness of antagonism were determined by the method of Arunlakshana & Schild (Br. J. Pharmac. 1959, 14 48-58).

c1ccc2c(c1)C[C@H]1CNC[C@@H]1O2 (racemic) [Example 2, (±)-trans-1,2,3,3a,9,9a-Hexahydro[1]benzopyrano[2,3-c]pyrrole, hydrochloride]
Kb: > 10 µM
